The compounds below were run against GST tagged truncated human mutant G2019S LRRK2 (Homo sapiens (Human), UniProt Q5S007, G2019S) (assay: LRRK2 Km ATP LanthaScreen Assay). Conditions: 134 μM ATP (Km ATP), LRRKtide substrate, negative log of mean IC50 (molar).
Chain of GST tagged truncated human mutant G2019S LRRK2 (Q5S007 970-2527 G2019S): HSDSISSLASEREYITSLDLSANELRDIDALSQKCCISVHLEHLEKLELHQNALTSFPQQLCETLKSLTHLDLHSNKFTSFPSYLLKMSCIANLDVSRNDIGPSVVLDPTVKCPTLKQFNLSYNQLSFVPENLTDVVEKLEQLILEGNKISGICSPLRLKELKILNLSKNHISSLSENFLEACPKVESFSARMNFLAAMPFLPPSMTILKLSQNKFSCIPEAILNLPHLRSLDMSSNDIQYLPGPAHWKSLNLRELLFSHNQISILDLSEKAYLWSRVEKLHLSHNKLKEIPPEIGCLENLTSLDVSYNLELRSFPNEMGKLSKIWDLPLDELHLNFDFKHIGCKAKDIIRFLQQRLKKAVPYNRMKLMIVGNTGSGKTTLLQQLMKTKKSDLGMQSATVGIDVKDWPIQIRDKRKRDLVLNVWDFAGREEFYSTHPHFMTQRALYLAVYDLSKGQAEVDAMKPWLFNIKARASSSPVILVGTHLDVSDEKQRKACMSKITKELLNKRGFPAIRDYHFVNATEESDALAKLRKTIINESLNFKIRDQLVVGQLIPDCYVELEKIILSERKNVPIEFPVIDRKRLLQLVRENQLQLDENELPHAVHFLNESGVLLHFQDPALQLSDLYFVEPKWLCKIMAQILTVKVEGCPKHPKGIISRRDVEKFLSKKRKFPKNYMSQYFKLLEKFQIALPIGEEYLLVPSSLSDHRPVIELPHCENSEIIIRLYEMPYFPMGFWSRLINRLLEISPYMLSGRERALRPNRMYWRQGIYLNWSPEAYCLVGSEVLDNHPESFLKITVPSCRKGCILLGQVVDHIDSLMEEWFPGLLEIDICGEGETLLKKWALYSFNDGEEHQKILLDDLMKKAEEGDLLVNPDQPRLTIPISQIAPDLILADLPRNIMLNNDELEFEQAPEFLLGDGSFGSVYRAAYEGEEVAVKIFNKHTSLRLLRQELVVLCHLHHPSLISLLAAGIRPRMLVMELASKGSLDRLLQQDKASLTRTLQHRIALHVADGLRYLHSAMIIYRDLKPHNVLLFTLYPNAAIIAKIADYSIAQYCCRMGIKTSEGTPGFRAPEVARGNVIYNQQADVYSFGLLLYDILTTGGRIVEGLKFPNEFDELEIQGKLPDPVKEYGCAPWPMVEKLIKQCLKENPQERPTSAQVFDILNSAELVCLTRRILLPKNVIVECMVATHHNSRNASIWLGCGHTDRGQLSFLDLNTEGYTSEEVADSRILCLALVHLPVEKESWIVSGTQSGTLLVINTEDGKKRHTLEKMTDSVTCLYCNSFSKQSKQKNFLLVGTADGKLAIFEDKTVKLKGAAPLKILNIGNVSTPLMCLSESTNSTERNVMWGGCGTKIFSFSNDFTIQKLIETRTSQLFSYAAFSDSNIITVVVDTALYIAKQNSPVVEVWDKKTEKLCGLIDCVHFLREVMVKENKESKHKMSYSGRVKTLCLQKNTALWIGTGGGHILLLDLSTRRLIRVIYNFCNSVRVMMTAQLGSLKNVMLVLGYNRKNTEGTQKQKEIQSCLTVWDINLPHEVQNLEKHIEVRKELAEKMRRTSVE
Type: biochemical
Description: Unless otherwise noted, all reactions are magnetically stirred. Unless otherwise noted, when diethyl ether is used in the experiments described below, it is Fisher ACS certified material and is stabilized with BHT. Unless otherwise noted, “concentrated” and/or “solvent removed under reduced pressure” means evaporating the solvent from a solution or mixture using a rotary evaporator or vacuum pump. Unless otherwise noted, flash chromatography is carried out on a Teledyne Isco (Lincoln, NE), Analogix (Burlington, WI), or Biotage (Stockholm, SWE) automated chromatography system using a commercially available cartridge as the column. Columns may be purchased from Teledyne Isco, Analogix, Biotage, Varian (Palo Alto, CA), or Supelco (Bellefonte, PA) and are usually filled with silica gel as the stationary phase. Reversed phase preparative HPLC conditions, where used, can be found at the end of each experimental section. Aqueous solutions were concentrated on a Genevac (Ipswich, ENG) or by freeze-drying/lyophilization. Unless otherwise noted, all LRRK2 pIC50 data presented in tables refers to the LRRK2 G2019S Km ATP LanthaScreen™ assay (Life Technologies Corp., Carlsbad, CA) that is described in the Biological Assay section.
Biological Assay: LRRK2 Km ATP LanthaScreen™ Assay
Compound potency against LRRK2 kinase activity was determined using LanthaScreen™ technology from Life Technologies Corporation (Carlsbad, CA) using a GST20 tagged truncated human mutant G2019S LRRK2 in the presence of the fluorescein-labeled peptide substrate LRRKtide® (LRRK2 phosphorylated ezrin/radixin/moesin (ERM)), also from Life Technologies. The data presented for the Km ATP LanthaScreen™ Assay represents mean IC50 values based on several test results and may have reasonable deviations depending on the specific conditions and reagents used. Km is the Michaelis constant of an enzyme and is defined as the concentration of native substrate (ATP for a kinase) which permits the enzyme to achieve half Vmax (Vmax=rate of reaction when the enzyme is saturated with substrate). IC50 (half-maximal inhibitory concentration) represents the concentration of inhibitor required to inhibit LRRK2 kinase activity by 50%. Assays were performed in the presence of 134 μM ATP (Km ATP). Upon completion, the assay was stopped, and phosphorylated substrate detected with a terbium (Tb)-labeled anti-pERM antibody (cat. no. PV4898). The compound dose response was prepared by diluting a 10 mM stock of compound to a maximum concentration of 9.99 μM in 100% DMSO, followed by custom fold serial dilution in DMSO nine times. 20 nL of each dilution was spotted via a Labcyte Echo onto a 384-well black-sided plate (Corning 3575) followed by 15 μL of a 1.25 nM enzyme solution in 1× assay buffer (50 mM Tris pH 8.5, 10 mM MgCl2, 0.01% Brij-35, 1 mM EGTA, 2 mM dithiothreitol, 0.05 mM sodium orthovanadate). Following a 15-min incubation period at rt, the kinase reaction was started with the addition of 5 μL of 400 nM fluorescein-labeled LRRKtide® (LRRK2 phosphorylated ezrin/radixin/moesin (ERM)) peptide substrate and 134 μM ATP solution in 1× assay buffer. The reaction was allowed to progress at ambient temperature for 90 min. The reaction was then stopped by the addition of 20 μL of TR-FRET Dilution Buffer (Life Technologies, Carlsbad, CA) containing 2 nM Tb-labeled anti-phospho LRRKtide® (LRRK2 phosphorylated ezrin/radixin/moesin (ERM)) antibody and 10 mM EDTA (Life Technologies, Carlsbad, CA). After an incubation period of 1 h at rt, the plate was read on an EnVision® multimode plate reader (Perkin Elmer, Waltham, MA) with an excitation wavelength of 337 nm (Laser) and a reading emission at both 520 and 495 nm. Compound IC50 values were interpolated from nonlinear regression best-fits of the log of the final compound concentration, plotted as a function of the 520/495-nm emission ratio using activity base “Abase”). Abase uses a 4 parameter (4P) logistic fit based on the Levenberg-Marquardt algorithm. […]
In the case of COc1nn(C2CCC2)cc1NC(=O)c1csc(-c2cn[nH]c2)n1 [Example 1-22, N-(1-cyclobutyl-3-methoxy-1H-pyrazol-4-yl)-2-(1H-pyrazol-4-yl)-1,3-thiazole-4-carboxamide], the “LRRK2 pIC50” value is reported as 7.76.
In the case of Cc1nn(C(C2CC2)C2CC2)cc1NC(=O)c1csc(-c2cn[nH]c2)n1 [Example 1-23, N-[1-(dicyclopropyl-methyl)-3-methyl-1H-pyrazol-4-yl]-2-(1H-pyrazol-4-yl)-1,3-thiazole-4-carboxamide], the “LRRK2 pIC50” value is reported as 6.59.
For O=C(Nc1cnn(-c2ccccc2)c1)c1csc(-c2cn[nH]c2)n1 [Example 1-24, N-(1-phenyl-1H-pyrazol-4-yl)-2-(1H-pyrazol-4-yl)-1,3-thiazole-4-carboxamide], the “LRRK2 pIC50” value was 7.56.
For O=C(Nc1cnn(C2CC2)c1)c1csc(-c2cn[nH]c2)n1 [Example 1-25, N-(1-cyclopropyl-1H-pyrazol-4-yl)-2-(1H-pyrazol-4-yl)-1,3-thiazole-4-carboxamide], the “LRRK2 pIC50” value was 7.65.
In the case of Cn1cc(NC(=O)c2csc(-c3cn[nH]c3)n2)c(OCC(F)F)n1 [Example 1-26, N-[3-(2,2-difluoroethoxy)-1-methyl-1H-pyrazol-4-yl]-2-(1H-pyrazol-4-yl)-1,3-thiazole-4-carboxamide], the “LRRK2 pIC50” value is reported as 7.56.
CSCC1(Cn2cc(NC(=O)c3csc(-c4cn[nH]c4)n3)cn2)CCC1 [Example 1-27, N-[1-({1-[(methylsulfanyl)methyl]cyclobu-tyl}methyl)-1H-pyrazol-4-yl]-2-(1H-pyrazol-4-yl)-1,3-thiazole-4-carboxamide] was tested, and the “LRRK2 pIC50” value was 7.77.
For COc1nn(Cc2nnc3n2CCCCC3)cc1NC(=O)c1csc(-c2cn[nH]c2)n1 [Example 1-28, N-[3-methoxy-1-(6,7,8,9-tetrahydro-5H-[1,2,4]triazolo[4,3-a]azepin-3-ylmethyl)-1H-pyrazol-4-yl]-2-(1H-pyrazol-4-yl)-1,3-thiazole-4-carboxamide], the “LRRK2 pIC50” value was 6.95.
In the case of COCC1(Cn2cc(NC(=O)c3csc(-c4cn[nH]c4)n3)cn2)CCC1 [Example 1-29, N-(1-{[1-(methoxymethyl)cyclobutyl]methyl}-1H-pyrazol-4-yl)-2-(1H-pyrazol-4-yl)-1,3-thiazole-4-carboxamide], the “LRRK2 pIC50” value is reported as 7.82.
With Cn1cc(NC(=O)c2csc(-c3cn[nH]c3)n2)c(Oc2ccccc2)n1 [Example 1-30, N-(1-methyl-3-phenoxy-1H-pyrazol-4-yl)-2-(1H-pyrazol-4-yl)-1,3-thiazole-4-carboxamide] the “LRRK2 pIC50” value was 7.78.
For Cn1cc(-c2nn(C)cc2NC(=O)c2csc(-c3cn[nH]c3)n2)cn1 [Example 1-31, N-(1,1′-dimethyl-1H,1′H-3,4′-bipyrazol-4-yl)-2-(1H-pyrazol-4-yl)-1,3-thiazole-4-carboxamide], the “LRRK2 pIC50” value was 7.95.
For CC1(C)CC(Cn2cc(NC(=O)c3csc(-c4cn[nH]c4)n3)cn2)C1 [Example 1-32, N-{1-[(3,3-dimethylcyclobu-tyl)methyl]-1H-pyrazol-4-yl}-2-(1H-pyrazol-4-yl)-1,3-thiazole-4-carboxamide], the “LRRK2 pIC50” value was 8.00.
O=C(Nc1cnn(C2CCC2)c1)c1coc(-c2cn[nH]c2)n1 [Example 1-33, N-(1-cyclobutyl-1H-pyrazol-4-yl)-2-(1H-pyrazol-4-yl)-1,3-oxazole-4-carboxamide] was tested, and the “LRRK2 pIC50” value was 7.13.
With CC1(Cn2cc(NC(=O)c3csc(-c4cn[nH]c4)n3)cn2)CCC1 [Example 1-34, N-{1-[(1-methylcyclobu-tyl)methyl]-1H-pyrazol-4-yl}-2-(1H-pyrazol-4-yl)-1,3-thiazole-4-carboxamide] the “LRRK2 pIC50” value was 7.92.
O=C(Nc1cnn(CC2CC(F)(F)C2)c1)c1csc(-c2cn[nH]c2)n1 [Example 1-35, N-{1-[(3,3-difluorocyclobu-tyl)methyl]-1H-pyrazol-4-yl}-2-(1H-pyrazol-4-yl)-1,3-thiazole-4-carboxamide] was tested, and the “LRRK2 pIC50” value was 7.77.
For CN(C)C(=O)c1nn(C)cc1NC(=O)c1csc(-c2cn[nH]c2)n1 [Example 1-36, N-[3-(dimethylcarba-moyl)-1-methyl-1H-pyrazol-4-yl]-2-(1H-pyrazol-4-yl)-1,3-thiazole-4-carboxamide], the “LRRK2 pIC50” value was 7.25.
With COc1nn(C2CC2)cc1NC(=O)c1csc(-c2cn[nH]c2)n1 [Example 1-37, N-(1-cyclopropyl-3-methoxy-1H-pyrazol-4-yl)-2-(1H-pyrazol-4-yl)-1,3-thiazole-4-carboxamide] the “LRRK2 pIC50” value was 7.51.
For O=C(Nc1cn(C2CC2)nc1C(F)F)c1csc(-c2cn[nH]c2)n1 [Example 1-38, N-[1-cyclopropyl-3-(difluoromethyl)-1H-pyrazol-4-yl]-2-(1H-pyrazol-4-yl)-1,3-thiazole-4-carboxamide], the “LRRK2 pIC50” value was 8.23.
CC(C)n1cc(NC(=O)c2coc(-c3cn[nH]c3)n2)cn1 [Example 1-39, N-[1-(1-methylethyl)-1H-pyrazol-4-yl]-2-(1H-pyrazol-4-yl)-1,3-oxazole-4-carboxamide] was tested, and the “LRRK2 pIC50” value was 6.36.
With Cn1cc(NC(=O)c2csc(-c3cn[nH]c3)n2)c(C(F)(F)F)n1 [Example 1-40, N-[1-methyl-3-(trifluoromethyl)-1H-pyrazol-4-yl]-2-(1H-pyrazol-4-yl)-1,3-thiazole-4-carboxamide] the “LRRK2 pIC50” value was 7.10.
With Cc1nn(C)cc1NC(=O)c1csc(-c2cn[nH]c2)n1 [Example 1-41, N-(1,3-dimethyl-1H-pyrazol-4-yl)-2-(1H-pyrazol-4-yl)-1,3-thiazole-4-carboxamide] the “LRRK2 pIC50” value was 7.23.
In the case of Cn1cc(NC(=O)c2csc(-c3cn[nH]c3)n2)c(C2CC2)n1 [Example 1-42, N-(3-cyclopropyl-1-methyl-1H-pyrazol-4-yl)-2-(1H-pyrazol-4-yl)-1,3-thiazole-4-carboxamide], the “LRRK2 pIC50” value is reported as 7.74.
In the case of O=C(Nc1cnn(CC2(F)CCC2)c1)c1csc(-c2cn[nH]c2)n1 [Example 1-43, N-{1-[(1-fluorocyclobutyl)methyl]-1H-pyrazol-4-yl}-2-(1H-pyrazol-4-yl)-1,3-thiazole-4-carboxamide], the “LRRK2 pIC50” value is reported as 7.64.
CS(=O)(=O)CC1(Cn2cc(NC(=O)c3csc(-c4cn[nH]c4)n3)cn2)CCC1 [Example 1-44, N-[1-({1-[(methylsulfonyl)methyl]cyclobutyl}methyl)-1H-pyrazol-4-yl]-2-(1H-pyrazol-4-yl)-1,3-thiazole-4-carboxamide] was tested, and the “LRRK2 pIC50” value was 7.91.
In the case of O=C(Nc1cnn(Cc2ccc(F)cc2)c1)c1coc(-c2cn[nH]c2)n1 [Example 1-45, N-[1-(4-fluorobenzyl)-1H-pyrazol-4-yl]-2-(1H-pyrazol-4-yl)-1,3-oxazole-4-carboxamide], the “LRRK2 pIC50” value is reported as 6.77.
With CC(C)n1cc(NC(=O)c2csc(-c3cn[nH]c3)n2)c(OCC(F)F)n1 [Example 1-46, N-[3-(2,2-difluoroethoxy)-1-(1-methylethyl)-1H-pyrazol-4-yl]-2-(1H-pyrazol-4-yl)-1,3-thiazole-4-carboxamide] the “LRRK2 pIC50” value was 7.57.
For CC(C1CC1)n1cc(NC(=O)c2csc(-c3cn[nH]c3)n2)c(C(F)F)n1 (stereo not shown) [Example 3-1, N-(1-(1-Cyclopropylethyl)-3-(difluoromethyl)-1H-pyrazol-4-yl)-2-(1H-pyrazol-4-yl)thiazole-4-carboxamide], the “LRRK2 pIC50” value was 7.27.
O=C(Nc1cn(C2CCC2)nc1C1CC1)c1csc(-c2cn[nH]c2)n1 [Example 3-2, N-(1-cyclobutyl-3-cyclopropyl-1H-pyrazol-4-yl)-2-(1H-pyrazol-4-yl)-1,3-thiazole-4-carboxamide] was tested, and the “LRRK2 pIC50” value was 8.35.
For O=C(Nc1cnn(C2CCC2)c1C1CC1)c1csc(-c2cn[nH]c2)n1 [Example 3-3, N-(1-cyclobutyl-5-cyclopropyl-1H-pyrazol-4-yl)-2-(1H-pyrazol-4-yl)-1,3-thiazole-4-carboxamide], the “LRRK2 pIC50” value was 7.16.

Source: US20240174679A1, “HETEROAROYL AMIDES AS LRRK2 INHIBITORS, PHARMACEUTICAL COMPOSITIONS, AND USES THEREOF” (MERCK SHARP & DOHME LLC, priority 2021, published 2024)
